Measured values reported in patent US20250127165A1, “USE OF 2-AMINO-3-PHENYLBUTYRIC ACID OR 2,6-DIAMINO-3-METHYLHEXANOIC ACID AS PLANT IMMUNE RESISTANCE INDUCER” (NANJING TIANNONG BIOTECHNOLOGY CO., LTD., priority 2021, published 2025).

Experiments:
[1] = test system: ryegrass; experiment: Induced resistance of ryegrass to high temperature stress; assay type: in vivo; conditions: for heat injury index (%): 45° C. 12 h, 7 days recovery
Experimental: 2,6-diamino-3-methylhexanoic acid was dissolved in distilled water and then gradiently diluted with distilled water into solutions of 1 nM, 10 nM, 100 nM, and 1,000 nM, and a blank control was set up, while 0.02% Tween 20 was added as surfactant. Four groups of replicates were set up for each concentration, and set up a blank control at room temperature. Ryegrass seeds were weighed and planted in a pot with a diameter of 8.5 cm at 0.8 g per pot, and transferred to a greenhouse with a temperature of 25° C., a humidity of 60%-70%, and a light intensity of 200 μmol m^−2s^−1 (12 h light/12 h darkness). After 7 days of growth, ryegrass was treated by spraying 2,6-diamino-3-methylhexanoic acid solution on the leaf surface, and spraying twice within 24 hours. 24 hours after the second spray, the plants were transferred to a light incubator at 45° C. for high temperature stress treatment. After 12 hours of treatment, they were removed and transferred to a greenhouse at 25° C. for 7 days for recovery. The injured conditions of the plants were observed and the grade of hot injury was calculated, where the grading standard of heat injury is shown in Table 8, and the formula for calculating the heat injury index is as follows.

[2] = test system: tea seedlings (Baiye 1); experiment: Induced resistance of tea tree to low temperature stress; assay type: in vivo; conditions: for PIABS (photosynthetic performance index): after −4° C. for 24 h; for cold injury index (%): −4° C. 24 h, 3 days recovery
Experimental: The tea tree tested was cutting seedling of Baiye 1. Tea seedlings with consistent growth were selected and transplanted into plastic pots with a diameter of 18 cm and placed in a greenhouse with a temperature of 25° C. and a humidity of 60%-70% for adaptive growth for about a week for the experiment. The concentrations used in this experiment were 0, 100, 1,000, and 10,000 nM, and 0.02% Tween 20 was added as surfactant, where the spray treatment method was the same as that of Arabidopsis thaliana in Example 1, the duration of low temperature stress was 24 hours, and the temperature was set to −4° C. After the stress was completed, the tea seedlings were removed and after 30 min of dark treatment at room temperature, the chlorophyll fluorescence of the top leaves of the tea seedlings was measured with Plant Efficiency Handy PEA. The tea seedlings were then placed in a greenhouse at 25° C. for 3 days for recovery. Then the condition of cold injury was observed and graded, where the grading standard of cold injury is shown Table 12, the formula for calculating the cold injury index is as follows.
The concentrations of 2,6-diamino-3-methylhexanoic acid used in the trail were 0, 1, 10, 100, and 1,000 nM, and 0.02% Tween 20 was added as surfactant. The effect of 2,6-diamino-3-methylhexanoic acid to induce the resistance of tea to low-temperature stress was investigated according to the method as described above.

[3] = test system: lysine monooxygenase; conditions: Ohnishi et al., 1976; cited from earlier work
[4] = test system: wheat powdery mildew; experiment: Field trial of induced resistance of wheat to powdery mildew; assay type: in vivo; conditions: 1,000 nM, field spray
Experimental: A solution of 2-amino-3-phenylbutyric acid at a concentration of 1,000 nM (with 0.02% by volume of surfactant Tween 20) was sprayed onto the stems and leaves in the field. The treatment included spraying 0.02% by volume of surfactant Tween 20 as an auxiliary control, and Atailing (30 g/mu) as a positive control, with two replications per treatment. After the spray, the disease grade of wheat in each treatment group was investigated, and the morbidity degree was recorded according to the grading standard of wheat powdery in the “Pesticides-Guidelines for the Field Efficacy Trails” (I), and the disease index and the relative immunization effect were calculated in the same manner as those of tomato spotted wilt. After the harvested wheat seeds were dried, the thousand grain weight of wheat seeds from different treatments was measured.
Grading Standard of Wheat Powdery Mildew (per leaf): • Grade 1: The area of diseased spots accounts for 5% or less of the whole leaf area; • Grade 3: The area of diseased spots accounts for 6%-15% of the whole leaf; • Grade 5: The area of diseased spots accounts for 16%-25% of the whole leaf; • Grade 7: The area of diseased spots accounts for 26%-50% of the whole leaf; • Grade 9: The area of diseased spots accounts for 50% or more of the whole leaf area.

[5] = test system: Leuconostoc dextranicum; conditions: Edelson & Keeley, 1963; cited from earlier work
[6] = test system: arthritis in rats; conditions: 100 mg/kg and 200 mg/kg; Ren et al., 2019; cited from earlier work

CC(CCCN)C(N)C(=O)O (centres unmarked) [2,6-diamino-3-methylhexanoic acid]
heat injury index (%) ([1]; 1 nM): 60%
heat injury index (%) ([1]; 10 nM): 54%
heat injury index (%) ([1]; 100 nM): 40%
decrease of heat injury index ([1]; 1,000 nM): 69%
heat injury index (%) ([1]; 1,000 nM): 22%
PIABS (photosynthetic performance index) ([2]; 1 nM): 25.53 ± 0.09
cold injury index (%) ([2]; 1 nM): 46%
PIABS (photosynthetic performance index) ([2]; 10 nM): 32.44 ± 1.51 c
cold injury index (%) ([2]; 10 nM): 42%
PIABS (photosynthetic performance index) ([2]; 100 nM): 37.41 ± 0.14 b
cold injury index (%) ([2]; 100 nM): 33%
decrease of cold injury index ([2]; 1,000 nM): 45%
increase of PIABS ([2]; 1,000 nM): 121%
PIABS (photosynthetic performance index) ([2]; 1,000 nM): 40.14 ± 0.15 a
cold injury index (%) ([2]; 1,000 nM): 26%
substrate activity for lysine monooxygenase [3]: no substrate activity

CC(c1ccccc1)C(N)C(=O)O (centres unmarked) [2-amino-3-phenylbutyric acid]
relative immunization effect (%) [4]: 51.72%
thousand grain weight [4]: 38.87 g
thousand grain weight (g) [4]: 38.87 ± 0.20 a g
PIABS (photosynthetic performance index) ([2]; 100 nM): 21.83 ± 1.73 bc
cold injury index (%) ([2]; 100 nM): 66.33%
PIABS (photosynthetic performance index) ([2]; 1,000 nM): 33.67 ± 3.27 b
cold injury index (%) ([2]; 1,000 nM): 45%
decrease of cold injury index ([2]; 10,000 nM): 35%
increase of PIABS ([2]; 10,000 nM): 147%
PIABS (photosynthetic performance index) ([2]; 10,000 nM): 42.36 ± 3.51 a
cold injury index (%) ([2]; 10,000 nM): 40%
effect on growth of Leuconostoc dextranicum [5]: inhibited the growth
effect on arthritis in rats [6]: can alleviate arthritis
